Structures are written as SMILES.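 Tested at 5 concentrations; 48 h exposure; 96-well plates; endpoints linearly interpolated, else capped at highest concentration. Abbreviation: GI50, concentration required for 50% inhibition of growth. TGI marks complete inhibition of growth.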 A value given as a limit tells only on which side of the number the result lay.

Seven compounds from PubChem BioAssay (NCI) can be followed below.

Some test systems named below: SR leukemia; SF-268 CNS; EKVX NSCLC; SNB-19 CNS; UO-31 renal; PC-3 prostate; NCI-H226 lung; UACC-62 melanoma; M14 melanoma; KM12 colon.
Holding throughout (test): NCI-60 cell line screen, 48 h

Take `Fc1ccc(-c2nn3ncccc3c2-c2ccnc(Nc3ccc4c(c3)OCCO4)n2)cc1`: the GI50 with SR leukemia was 5.74 µM; with SF-268 CNS, 7.36 µM; with EKVX NSCLC, 2.16 µM; with SNB-19 CNS, 19.4 µM; with UO-31 renal, 0.581 µM; in the experiment on PC-3 prostate, 7.32 µM. For the same compound, the GI50 in the experiment on NCI-H226 lung was 5.76 µM; in the experiment on UACC-62 melanoma, 3.97 µM; with M14 melanoma, 7.81 µM; in the experiment on KM12 colon, 5.32 µM. Further, the TGI was greater than 23.2 µM with SR leukemia; greater than 25 µM in the experiment with SF-268 CNS; greater than 25 µM in the experiment on EKVX NSCLC; greater than 25 µM in the experiment with SNB-19 CNS; greater than 25 µM with UO-31 renal; greater than 25 µM in the experiment on PC-3 prostate. In addition, the TGI with NCI-H226 lung is greater than 18.9 µM; in the experiment on UACC-62 melanoma it was 9.12 µM; with M14 melanoma, greater than 25 µM; with KM12 colon, 19.8 µM.

Regarding `O=C(/C=C\n1cnc(-c2cc(C(F)(F)F)cc(C(F)(F)F)c2)n1)NNc1cnccn1`, the GI50 was 0.0362 µM in the experiment with SR leukemia; 0.0577 µM with SF-268 CNS; 0.0853 µM with EKVX NSCLC; 0.142 µM in the experiment with SNB-19 CNS; 0.12 µM in the experiment on UO-31 renal; 0.128 µM in the experiment with PC-3 prostate. In addition, the GI50 with NCI-H226 lung is 0.0384 µM; in the experiment on UACC-62 melanoma, 0.232 µM; in the experiment on M14 melanoma, 0.311 µM; in the experiment with KM12 colon, 0.492 µM. Besides, the TGI with SR leukemia was greater than 100 µM; in the experiment on SF-268 CNS, 10.6 µM; in the experiment on EKVX NSCLC, 14.5 µM; in the experiment with SNB-19 CNS it was 13.4 µM; in the experiment on UO-31 renal, 12.8 µM; in the experiment with PC-3 prostate, 15.7 µM. Further, the TGI in the experiment on NCI-H226 lung came to 3.05 µM; in the experiment with UACC-62 melanoma it was 6.83 µM; in the experiment with M14 melanoma, 9.04 µM; with KM12 colon it was 17 µM.

Consider `CCCCN1CSC(=S)N(Cc2ccccc2)C1`, for which the TGI in the experiment with SR leukemia is greater than 100 µM; in the experiment with SF-268 CNS, greater than 100 µM; in the experiment on EKVX NSCLC, 78.7 µM; in the experiment with SNB-19 CNS, greater than 100 µM; in the experiment with UO-31 renal, greater than 100 µM; in the experiment on PC-3 prostate, greater than 100 µM. For the same compound, the TGI with NCI-H226 lung, in the experiment with UACC-62 melanoma, with M14 melanoma and in the experiment with KM12 colon was greater than 100 µM throughout.

For `COc1cc2c3c(n(CCNCCCNCCn4c5c(c6cc(OC)c(OC)cc6c4=O)C(=O)c4ccccc4-5)c(=O)c2cc1OC)-c1ccccc1C3=O`, the GI50 was 0.0191 µM in the experiment on SR leukemia; 0.0648 µM with SF-268 CNS; 5.89 µM with EKVX NSCLC; 0.162 µM in the experiment with SNB-19 CNS; greater than 65.1 µM with UO-31 renal; 0.0865 µM with PC-3 prostate. Also, the GI50 in the experiment with NCI-H226 lung was 0.3 µM; in the experiment on UACC-62 melanoma it was 1.2 µM; with M14 melanoma it was 1.38 µM; in the experiment with KM12 colon it was 0.0754 µM. Moreover, the TGI was 0.702 µM in the experiment on SR leukemia; 47.2 µM in the experiment on EKVX NSCLC; 4.26 µM with SNB-19 CNS; greater than 100 µM in the experiment with UO-31 renal; 2.09 µM with PC-3 prostate; 3.04 µM in the experiment with NCI-H226 lung. Further, the figures for the TGI with UACC-62 melanoma, in the experiment on M14 melanoma and with KM12 colon were 2.69 µM, 6.52 µM and 0.59 µM, respectively.

On to `CCN(CC)CCCC(C)Nc1cnc(C(=O)Nc2cccc3ccc(OC)nc23)cn1` (centres undefined), for which the GI50 was 2.27 µM with SR leukemia; 11.2 µM in the experiment on SF-268 CNS; 2.52 µM in the experiment with EKVX NSCLC; 3.11 µM in the experiment on SNB-19 CNS; 1.46 µM in the experiment on UO-31 renal; 2.83 µM in the experiment with PC-3 prostate. For the same compound, the GI50 with NCI-H226 lung was 7.52 µM; in the experiment on UACC-62 melanoma, 1.79 µM; in the experiment with M14 melanoma, 1.93 µM; with KM12 colon, 3.17 µM. The TGI in the experiment on SR leukemia worked out at 7.36 µM; with SF-268 CNS, 25.8 µM; in the experiment on EKVX NSCLC, 8.36 µM; with SNB-19 CNS it was 10.9 µM; with UO-31 renal, 2.82 µM; in the experiment with PC-3 prostate it was 10.5 µM. In addition, the TGI in the experiment with NCI-H226 lung came to 21.7 µM; in the experiment on UACC-62 melanoma it was 3.21 µM; in the experiment with M14 melanoma, 3.71 µM; in the experiment on KM12 colon it was 11.7 µM.

With `CC[CH2][Sn]([Cl])([Cl])[CH2]CC.Oc1ccccc1C=NCCN=Cc1ccccc1O`, the GI50 in the experiment on SR leukemia was 5.45 µM; in the experiment on SF-268 CNS, 3.63 µM; in the experiment on EKVX NSCLC, 12.9 µM; in the experiment on SNB-19 CNS, 12.1 µM; in the experiment with UO-31 renal it was 5.45 µM; with PC-3 prostate, 6.28 µM. Also, the GI50 in the experiment on NCI-H226 lung was 3.13 µM; in the experiment on UACC-62 melanoma, 5.77 µM; in the experiment with M14 melanoma it was 5.49 µM; with KM12 colon it was 12.7 µM. For the same compound, the TGI with SR leukemia is greater than 100 µM; in the experiment on SF-268 CNS, 15.5 µM; with EKVX NSCLC, 27.3 µM; with SNB-19 CNS, 25 µM; in the experiment on UO-31 renal it was 21.5 µM; in the experiment on PC-3 prostate, 22.7 µM. Also, the TGI in the experiment on NCI-H226 lung was 12.6 µM; in the experiment on UACC-62 melanoma, 19.6 µM; with M14 melanoma, 19.3 µM; in the experiment with KM12 colon it was 25.9 µM.

Regarding `C/C=C(\C)CC/C=C/CO[Si](C)(C)C(C)(C)C`, the TGI in the experiment on SR leukemia is 56.3 µM; with SF-268 CNS, greater than 100 µM; with EKVX NSCLC it was greater than 100 µM; in the experiment with SNB-19 CNS, greater than 100 µM; with UO-31 renal, greater than 100 µM; with PC-3 prostate it was greater than 100 µM. For the same compound, the TGI in the experiment on NCI-H226 lung, with UACC-62 melanoma, in the experiment with M14 melanoma and with KM12 colon was greater than 100 µM each time.
